According to ChEMBL document CHEMBL1201862, “PubChem BioAssay data set” (2004):
Calls of active or inactive are those of the source. Bridge positions count the residues as written; N and C are the ends. Square brackets hold non-standard residues; d marks the D form. Peptide text beside a SMILES is read from it. * marks the point of attachment. X1 = CCC(C)C(N)C1=NC(C(=O)*)CS1; dOrn = NCCC[C@@H](N)C(=O)O

Tests used:
[1] = target: Voltage-gated inwardly rectifying potassium channel KCNH2 (Homo sapiens, UniProt Q12809); conditions: Potency;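 note: confirmatory quantitative high-throughput screen measuring inhibition of hERG channel activity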
[2] = target: T1, Lysine-specific demethylase 4C (Homo sapiens, UniProt Q9H3R0); test: GASC-1 (JMJD2C) histone demethylase inhibitors, dose response, biochemical, DELFIA europium, cherry-picked samples (AID 488835); type: functional
T1 sequence (Q9H3R0 whole entry): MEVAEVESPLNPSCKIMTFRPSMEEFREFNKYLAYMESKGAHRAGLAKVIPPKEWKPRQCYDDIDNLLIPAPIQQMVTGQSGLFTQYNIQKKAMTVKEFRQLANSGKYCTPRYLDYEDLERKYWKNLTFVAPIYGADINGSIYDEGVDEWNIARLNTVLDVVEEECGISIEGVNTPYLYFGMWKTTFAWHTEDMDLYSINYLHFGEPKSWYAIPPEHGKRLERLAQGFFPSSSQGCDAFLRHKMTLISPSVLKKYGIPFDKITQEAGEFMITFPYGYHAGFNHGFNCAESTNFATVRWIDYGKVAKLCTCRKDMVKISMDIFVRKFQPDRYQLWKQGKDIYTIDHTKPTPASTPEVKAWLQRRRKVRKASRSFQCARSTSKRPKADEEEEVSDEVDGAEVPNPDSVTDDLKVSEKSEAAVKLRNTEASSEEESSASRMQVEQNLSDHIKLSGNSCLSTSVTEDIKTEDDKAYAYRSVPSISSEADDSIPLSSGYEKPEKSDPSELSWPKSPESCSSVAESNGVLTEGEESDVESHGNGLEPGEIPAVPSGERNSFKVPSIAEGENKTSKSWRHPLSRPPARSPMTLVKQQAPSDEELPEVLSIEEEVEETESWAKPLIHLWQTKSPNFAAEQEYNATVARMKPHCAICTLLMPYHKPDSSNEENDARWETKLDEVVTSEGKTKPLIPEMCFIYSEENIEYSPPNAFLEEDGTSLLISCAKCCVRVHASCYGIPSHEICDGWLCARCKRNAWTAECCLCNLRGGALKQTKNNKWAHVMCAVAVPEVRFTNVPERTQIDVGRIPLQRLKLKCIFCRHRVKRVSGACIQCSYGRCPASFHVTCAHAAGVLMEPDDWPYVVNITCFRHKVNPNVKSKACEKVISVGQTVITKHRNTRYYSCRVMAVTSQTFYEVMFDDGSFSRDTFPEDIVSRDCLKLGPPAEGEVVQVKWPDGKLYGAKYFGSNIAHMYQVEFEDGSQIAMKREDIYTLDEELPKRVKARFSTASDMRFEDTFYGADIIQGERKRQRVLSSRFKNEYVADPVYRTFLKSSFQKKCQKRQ

[3] = target: T2, Short transient receptor potential channel 4 (Mus musculus, UniProt Q9QUQ5); test: mouse TRPC4 channel activators, dose response, cell-based, HEK293 TRPC4/mu-opioid, Fluo-4 calcium (AID 434937); type: functional
T2 sequence (Q9QUQ5 whole entry): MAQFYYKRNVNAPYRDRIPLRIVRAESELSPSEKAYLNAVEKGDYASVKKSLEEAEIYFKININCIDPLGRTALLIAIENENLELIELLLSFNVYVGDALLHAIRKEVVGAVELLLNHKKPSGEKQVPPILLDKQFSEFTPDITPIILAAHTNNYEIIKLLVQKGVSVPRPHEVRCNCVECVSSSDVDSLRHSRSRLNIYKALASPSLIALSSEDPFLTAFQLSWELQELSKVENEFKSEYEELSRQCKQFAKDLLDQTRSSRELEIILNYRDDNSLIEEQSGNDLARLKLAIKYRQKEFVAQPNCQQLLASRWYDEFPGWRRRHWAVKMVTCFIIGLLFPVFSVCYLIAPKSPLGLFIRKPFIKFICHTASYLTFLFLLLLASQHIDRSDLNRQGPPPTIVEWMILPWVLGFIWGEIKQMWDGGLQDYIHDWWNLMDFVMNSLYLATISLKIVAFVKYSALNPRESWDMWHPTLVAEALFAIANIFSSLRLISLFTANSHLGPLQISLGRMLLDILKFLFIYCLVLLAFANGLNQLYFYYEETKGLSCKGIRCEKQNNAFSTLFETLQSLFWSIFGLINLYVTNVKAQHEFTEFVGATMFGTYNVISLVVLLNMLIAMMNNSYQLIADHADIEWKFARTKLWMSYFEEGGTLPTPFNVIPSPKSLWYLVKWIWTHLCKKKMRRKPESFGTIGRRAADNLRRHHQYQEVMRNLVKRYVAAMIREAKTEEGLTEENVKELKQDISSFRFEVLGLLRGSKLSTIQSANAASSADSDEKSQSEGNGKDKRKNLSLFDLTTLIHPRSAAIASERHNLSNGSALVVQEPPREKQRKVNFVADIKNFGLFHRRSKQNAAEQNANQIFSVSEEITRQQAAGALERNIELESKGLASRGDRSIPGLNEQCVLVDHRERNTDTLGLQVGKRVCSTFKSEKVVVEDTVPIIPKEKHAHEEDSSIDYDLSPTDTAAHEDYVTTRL

[4] = target: T3, RNA-binding protein pos-1 (Caenorhabditis elegans, UniProt G5EF15); test: inhibitors of POS-1/mex-3 RNA binding, dose response, biochemical, fluorescence polarization (AID 1964);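 note: purified POS-1 fused to maltose binding protein made in E. coli; potency of compounds blocking POS-1 binding to fluorescent RNA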
T3 sequence (G5EF15 whole entry): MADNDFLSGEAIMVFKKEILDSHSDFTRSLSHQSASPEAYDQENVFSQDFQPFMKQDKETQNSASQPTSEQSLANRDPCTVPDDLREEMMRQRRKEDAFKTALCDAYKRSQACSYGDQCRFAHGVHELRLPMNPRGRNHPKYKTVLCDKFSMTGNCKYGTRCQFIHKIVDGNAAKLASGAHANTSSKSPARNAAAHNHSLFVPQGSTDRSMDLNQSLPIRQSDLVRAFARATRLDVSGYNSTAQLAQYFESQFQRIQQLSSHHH

[5] = target: T4, Endoribonuclease toxin MazF (Escherichia coli K-12, UniProt P0AE70); test: fluorescent RNA oligo signal without MazF, dose response, counter-screen for MazEF activator project, biochemical, fluorescence, single-stranded RNase substrate (AID 588502); type: functional
T4 sequence (P0AE70 whole entry): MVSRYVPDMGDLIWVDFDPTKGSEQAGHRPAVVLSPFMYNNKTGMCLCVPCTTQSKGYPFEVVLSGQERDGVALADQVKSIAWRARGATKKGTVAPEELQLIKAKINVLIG

[6] = target: T5, Zinc finger protein mex-5 (Caenorhabditis elegans, UniProt Q9XUB2); test: MEX-5/TCR-2 RNA interaction inhibitors, dose response, biochemical, C. elegans, fluorescence polarization (AID 1960)
T5 sequence (Q9XUB2 whole entry): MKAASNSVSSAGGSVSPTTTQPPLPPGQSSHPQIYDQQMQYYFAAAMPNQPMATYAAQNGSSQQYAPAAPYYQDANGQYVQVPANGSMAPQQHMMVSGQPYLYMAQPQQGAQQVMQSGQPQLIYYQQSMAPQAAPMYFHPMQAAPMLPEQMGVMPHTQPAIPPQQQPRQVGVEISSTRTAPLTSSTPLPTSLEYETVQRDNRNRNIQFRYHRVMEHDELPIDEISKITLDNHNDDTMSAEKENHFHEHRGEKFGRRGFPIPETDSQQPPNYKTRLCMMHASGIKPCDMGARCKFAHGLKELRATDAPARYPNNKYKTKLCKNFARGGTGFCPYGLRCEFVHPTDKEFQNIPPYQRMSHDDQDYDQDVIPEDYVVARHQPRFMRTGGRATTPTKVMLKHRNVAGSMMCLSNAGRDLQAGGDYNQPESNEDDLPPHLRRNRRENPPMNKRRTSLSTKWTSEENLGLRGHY

[7] = target: T4, Endoribonuclease toxin MazF; test: MazF toxin RNase activators, dose response, biochemical, fluorescence, single-stranded RNA substrate, uHTS hits (AID 588481); type: functional
[8] = target: Glucose-6-phosphate 1-dehydrogenase (Homo sapiens, UniProt P11413); test: human G6PD enzyme inhibitors, dose response, selectivity assay for P. falciparum G6PD inhibitor project, biochemical, fluorescence (AID 504792); type: functional
[9] = target: T6, Luciferin 4-monooxygenase (Photinus pyralis, UniProt P08659); test: firefly luciferase enzyme inhibitors, dose response, biochemical, luminescence (AID 1891)
[10] = Luminescence Cell-Based Dose Confirmation HTS to Identify Inhibitors of Platelet Dense Granule Release. [Related pubchem assays: 1663 (Primary HTS), 1678 (Summary of Project)]; type: functional
HT-1080 = test: cytotoxicity in HT1080 fibrosarcoma cells, cell-based, fluorescence readout (AID 620); type: functional; conditions: Homo sapiens
[11] = target: T7, Microphthalmia-associated transcription factor (Homo sapiens, UniProt O75030); test: TRPM1 promoter luciferase signal decrease, dose response, MITF inhibitor project, cell-based, SK-MEL-5, cherry-picked, set 3 (AID 493073); type: functional
T7 sequence (O75030 whole entry): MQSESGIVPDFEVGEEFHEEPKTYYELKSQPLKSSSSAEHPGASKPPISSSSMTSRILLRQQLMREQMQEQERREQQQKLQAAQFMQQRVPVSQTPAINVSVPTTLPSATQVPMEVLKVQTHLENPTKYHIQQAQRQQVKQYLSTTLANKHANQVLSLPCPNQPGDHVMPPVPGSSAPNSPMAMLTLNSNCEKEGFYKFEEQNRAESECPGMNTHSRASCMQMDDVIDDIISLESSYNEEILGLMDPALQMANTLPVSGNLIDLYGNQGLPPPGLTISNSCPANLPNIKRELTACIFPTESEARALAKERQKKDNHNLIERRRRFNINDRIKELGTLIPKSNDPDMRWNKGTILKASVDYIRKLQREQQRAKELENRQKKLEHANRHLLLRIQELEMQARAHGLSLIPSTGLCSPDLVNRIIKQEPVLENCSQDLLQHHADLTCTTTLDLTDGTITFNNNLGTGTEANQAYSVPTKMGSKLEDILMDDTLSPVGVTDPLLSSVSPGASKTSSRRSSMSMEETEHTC

[12] = target: T6, Luciferin 4-monooxygenase; test: Counter Screen for Luciferase-based Assay Positives. [Related pubchem assays: 620, 618, 411 ]
[13] = target: T8, Polyadenylate-binding protein 1 (Homo sapiens, UniProt P11940); test: PABP1 MLLE–PAM2 interaction inhibitors, dose response, miRNA deadenylation inhibitor project, biochemical, fluorescence polarization, Cy5-PAM2 peptide, secondary (AID 602260); type: functional; conditions: read-out: IC50_Mean
[14] = target: T8, Polyadenylate-binding protein 1; test: PABP1 MLLE–PAM2 binding inhibitor potency, dose response, biochemical, fluorescence polarization, FITC-PAM2 peptide (AID 602259); type: functional; conditions: read-out: IC50_Mean
[15] = target: DNA dC->dU-editing enzyme APOBEC-3A (Homo sapiens, UniProt P31941); test: SAR analysis of small molecule inhibitors of APOBEC3A DNA Deaminase via a fluorescence-based single-stranded DNA deaminase assay.; type: functional; conditions: read-out: IC50_Mean
[16] = target: DNA dC->dU-editing enzyme APOBEC-3G (Homo sapiens, UniProt Q9HC16); test: APOBEC3G deaminase inhibitors, SAR follow-up, biochemical, fluorescence, single-stranded DNA substrate (AID 602136); type: functional; conditions: read-out: IC50_Mean
Cytochrome P450 3A4 = Cytochrome P450 3A4 (Homo sapiens, UniProt P08684); conditions: Potency;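 note: confirmatory qHTS run detecting inhibitors and substrates of CYP3A4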
Sequence of Cytochrome P450 3A4 (P08684 whole entry): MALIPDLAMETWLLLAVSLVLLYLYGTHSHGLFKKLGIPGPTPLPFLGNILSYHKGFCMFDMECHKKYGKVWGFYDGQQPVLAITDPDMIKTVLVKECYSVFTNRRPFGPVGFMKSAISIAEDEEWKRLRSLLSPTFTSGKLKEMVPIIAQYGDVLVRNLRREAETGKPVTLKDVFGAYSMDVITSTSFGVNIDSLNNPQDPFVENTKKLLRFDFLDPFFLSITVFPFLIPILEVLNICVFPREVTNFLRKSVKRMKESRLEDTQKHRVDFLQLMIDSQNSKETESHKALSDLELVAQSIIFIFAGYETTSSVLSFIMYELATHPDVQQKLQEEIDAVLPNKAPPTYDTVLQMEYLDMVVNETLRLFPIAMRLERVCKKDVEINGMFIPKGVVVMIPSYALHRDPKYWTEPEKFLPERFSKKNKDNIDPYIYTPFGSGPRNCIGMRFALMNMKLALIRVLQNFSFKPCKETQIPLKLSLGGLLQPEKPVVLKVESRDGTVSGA

Sequence of Voltage-gated inwardly rectifying potassium channel KCNH2 (Q12809 whole entry): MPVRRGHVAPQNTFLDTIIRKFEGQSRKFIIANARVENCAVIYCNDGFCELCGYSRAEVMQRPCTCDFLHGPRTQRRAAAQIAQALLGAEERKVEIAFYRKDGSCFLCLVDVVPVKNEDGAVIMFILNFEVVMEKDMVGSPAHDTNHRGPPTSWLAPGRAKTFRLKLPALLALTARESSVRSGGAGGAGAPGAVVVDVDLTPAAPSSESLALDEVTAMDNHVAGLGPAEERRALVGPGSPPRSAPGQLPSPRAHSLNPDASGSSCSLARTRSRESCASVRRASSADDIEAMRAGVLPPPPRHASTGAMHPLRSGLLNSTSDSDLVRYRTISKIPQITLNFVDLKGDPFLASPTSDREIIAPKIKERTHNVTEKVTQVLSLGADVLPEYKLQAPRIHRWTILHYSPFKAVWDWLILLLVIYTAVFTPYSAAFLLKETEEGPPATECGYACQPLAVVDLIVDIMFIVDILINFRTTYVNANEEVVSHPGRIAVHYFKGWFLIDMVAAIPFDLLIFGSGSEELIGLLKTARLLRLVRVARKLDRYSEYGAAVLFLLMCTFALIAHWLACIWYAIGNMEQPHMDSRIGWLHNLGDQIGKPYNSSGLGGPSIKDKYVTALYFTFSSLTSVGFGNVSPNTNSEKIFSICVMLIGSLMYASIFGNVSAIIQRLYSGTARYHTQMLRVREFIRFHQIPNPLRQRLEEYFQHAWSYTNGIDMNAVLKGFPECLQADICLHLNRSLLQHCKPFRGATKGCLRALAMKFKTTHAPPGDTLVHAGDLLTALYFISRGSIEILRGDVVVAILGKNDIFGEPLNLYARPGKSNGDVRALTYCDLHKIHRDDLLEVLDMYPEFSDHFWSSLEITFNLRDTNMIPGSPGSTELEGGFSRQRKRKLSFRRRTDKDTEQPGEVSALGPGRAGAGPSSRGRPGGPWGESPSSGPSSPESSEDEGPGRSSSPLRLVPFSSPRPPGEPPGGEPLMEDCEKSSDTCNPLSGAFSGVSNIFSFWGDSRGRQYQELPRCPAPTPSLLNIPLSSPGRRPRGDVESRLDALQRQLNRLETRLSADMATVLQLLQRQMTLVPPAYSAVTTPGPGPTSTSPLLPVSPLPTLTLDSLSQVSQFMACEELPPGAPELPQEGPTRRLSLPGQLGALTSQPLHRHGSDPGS
T6 sequence (P08659 whole entry): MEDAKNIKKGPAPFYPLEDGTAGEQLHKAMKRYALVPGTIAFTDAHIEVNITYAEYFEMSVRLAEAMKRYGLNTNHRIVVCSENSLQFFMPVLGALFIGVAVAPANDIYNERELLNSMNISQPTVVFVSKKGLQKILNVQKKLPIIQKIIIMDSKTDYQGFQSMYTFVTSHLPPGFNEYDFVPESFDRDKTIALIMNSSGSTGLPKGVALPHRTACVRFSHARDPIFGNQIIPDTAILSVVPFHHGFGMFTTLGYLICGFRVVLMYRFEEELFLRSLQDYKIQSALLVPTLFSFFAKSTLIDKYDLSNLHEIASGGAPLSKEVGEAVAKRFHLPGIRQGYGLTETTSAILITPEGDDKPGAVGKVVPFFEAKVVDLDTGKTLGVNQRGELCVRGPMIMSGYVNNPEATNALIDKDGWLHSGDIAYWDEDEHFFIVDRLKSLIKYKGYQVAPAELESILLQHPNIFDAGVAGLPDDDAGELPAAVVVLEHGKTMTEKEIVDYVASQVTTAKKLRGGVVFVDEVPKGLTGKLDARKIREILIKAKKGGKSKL
T8 sequence (P11940 whole entry): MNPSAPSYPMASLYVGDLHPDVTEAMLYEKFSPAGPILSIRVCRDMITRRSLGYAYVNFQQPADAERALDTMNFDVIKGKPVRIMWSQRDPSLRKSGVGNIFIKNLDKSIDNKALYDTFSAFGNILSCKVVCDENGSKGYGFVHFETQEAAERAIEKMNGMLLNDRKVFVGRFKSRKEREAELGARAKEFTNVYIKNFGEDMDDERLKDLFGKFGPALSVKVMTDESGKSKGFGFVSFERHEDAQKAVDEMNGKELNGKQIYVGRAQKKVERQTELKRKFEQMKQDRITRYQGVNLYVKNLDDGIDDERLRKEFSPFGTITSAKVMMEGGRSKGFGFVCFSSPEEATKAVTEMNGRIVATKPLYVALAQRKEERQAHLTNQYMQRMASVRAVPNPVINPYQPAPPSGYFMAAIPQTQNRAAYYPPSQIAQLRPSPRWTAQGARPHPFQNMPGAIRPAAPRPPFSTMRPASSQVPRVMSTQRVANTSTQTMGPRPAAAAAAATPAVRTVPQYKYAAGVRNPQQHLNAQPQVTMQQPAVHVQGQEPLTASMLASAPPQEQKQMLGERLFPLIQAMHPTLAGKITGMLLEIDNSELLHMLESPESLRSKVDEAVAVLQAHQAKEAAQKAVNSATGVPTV
Sequence of Glucose-6-phosphate 1-dehydrogenase (P11413 whole entry): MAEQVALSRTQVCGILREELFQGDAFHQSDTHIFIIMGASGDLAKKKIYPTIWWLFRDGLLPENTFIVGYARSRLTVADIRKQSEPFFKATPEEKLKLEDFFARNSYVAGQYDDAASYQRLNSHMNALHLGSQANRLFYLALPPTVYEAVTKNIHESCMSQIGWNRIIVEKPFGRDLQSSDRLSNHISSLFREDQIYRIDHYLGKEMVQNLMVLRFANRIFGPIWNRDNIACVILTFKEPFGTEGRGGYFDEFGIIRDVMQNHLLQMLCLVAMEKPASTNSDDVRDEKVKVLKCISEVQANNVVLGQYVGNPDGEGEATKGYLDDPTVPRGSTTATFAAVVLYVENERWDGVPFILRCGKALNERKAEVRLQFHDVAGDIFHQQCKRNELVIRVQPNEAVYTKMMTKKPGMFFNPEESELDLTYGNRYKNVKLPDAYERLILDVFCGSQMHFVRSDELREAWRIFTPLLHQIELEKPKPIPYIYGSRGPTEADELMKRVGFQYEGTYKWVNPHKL
Sequence of DNA dC->dU-editing enzyme APOBEC-3A (P31941 whole entry): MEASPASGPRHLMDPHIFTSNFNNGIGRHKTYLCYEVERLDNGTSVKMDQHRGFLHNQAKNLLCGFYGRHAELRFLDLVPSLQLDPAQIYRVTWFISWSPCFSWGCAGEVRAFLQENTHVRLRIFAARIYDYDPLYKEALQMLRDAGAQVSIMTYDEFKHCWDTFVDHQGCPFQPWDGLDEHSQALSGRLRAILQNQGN
Sequence of DNA dC->dU-editing enzyme APOBEC-3G (Q9HC16 whole entry): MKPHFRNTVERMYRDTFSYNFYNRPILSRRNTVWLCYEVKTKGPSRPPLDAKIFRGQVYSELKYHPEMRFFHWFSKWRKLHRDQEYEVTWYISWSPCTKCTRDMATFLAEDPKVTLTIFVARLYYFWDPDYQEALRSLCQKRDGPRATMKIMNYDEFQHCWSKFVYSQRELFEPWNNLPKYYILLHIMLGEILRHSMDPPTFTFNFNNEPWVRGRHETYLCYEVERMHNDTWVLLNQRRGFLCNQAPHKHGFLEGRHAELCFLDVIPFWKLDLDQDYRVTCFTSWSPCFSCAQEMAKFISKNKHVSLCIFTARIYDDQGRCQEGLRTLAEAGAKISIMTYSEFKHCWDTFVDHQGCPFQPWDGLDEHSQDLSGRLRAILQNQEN

Compound: CC(C)N=C=NC(C)C
- AC50 [1]: 35.5 µM (inconclusive)

Compound: Cc1ccc(-c2csc3nc4cc(C(=O)NC5CCC(O)CC5)ccc4c(=O)n23)cc1 (stereo unspecified)
- AC50 [2]: 3.96 µM (active)

Compound: CC1(c2ccc(Cl)cc2Cl)OCC(Cn2ccnc2)O1 (stereo unspecified)
- EC50 [3]: 2.37 µM (active)

Compound: Cc1c(Cl)cccc1NC(S)=NCC(c1cccnc1)N(C)C (stereo unspecified)
- EC50 [3]: 0.0013 µM (active)

Compound: O=C(NCc1ccccn1)c1cn(Cc2ccccc2)nn1
- AC50 [2]: > 60 µM (inactive)

Compound: CN(C)C(CNC(=O)c1ccc2[nH]cnc2c1)c1ccccc1 (stereo unspecified)
- EC50 [3]: 0.473 µM (active)

Compound: O=c1[nH]nc(CNc2ccc(O)cc2)c2ccccc12
- EC50 [4]: 11.8 µM (active)
- EC50 [5]: > 99 µM (inactive)
- EC50 [6]: 15.3 µM (inconclusive)
- EC50 [7]: > 99 µM (inactive)
- IC50 [8]: > 80 µM (inactive)

Compound: O=C(N=CNOCc1ccc(Cl)cc1Cl)NOCc1c(Cl)cccc1Cl
- EC50 [9]: > 112 µM (not active)
- EC50 [10]: > 112 µM (not active)
- EC50 [5]: > 99 µM (inactive)
- EC50 [7]: > 99 µM (inactive)

Compound: CCc1ccc(-c2cc(C(=O)Nn3cnnc3)c3ccccc3n2)cc1
- EC50 (HT-1080): > 50 µM (not active)
- AC50 [11]: 12.5 µM (active)
- EC50 [12]: 2.73 µM (active)

Compound: C[C@H](CO)N1C[C@H](C)[C@@H](CN(C)Cc2ccc3c(c2)OCO3)Oc2c(NC(=O)C3CCCCC3)cccc2C1=O
- AC50 [2]: 13.1 µM (active)

Compound: CCOc1ccc(/N=C/C=C(/O)c2ccc(OC)cc2)c([N+](=O)[O-])c1
- IC50 [13]: > 66 µM (inactive)
- IC50 [14]: > 66 µM (inactive)
- EC50 [5]: 6.29 µM (active)
- EC50 [7]: > 99 µM (inactive)

Compound: CCc1ccc(Nc2nc(Nc3cccc(OC)c3)nc(N3CCOCC3)n2)cc1
- IC50 [15]: > 99 µM (inactive)
- IC50 [16]: 47.7 µM (inactive)

Compound: CCC(C)C(N)C1=NC(C(=O)N[C@@H](CC(C)C)C(=O)N[C@H](CCC(=O)O)C(=O)N[C@H](C(=O)N[C@H]2CCCCNC(=O)[C@H](CC(N)=O)NC(=O)[C@@H](CC(=O)O)NC(=O)[C@H](Cc3c[nH]cn3)NC(=O)[C@@H](Cc3ccccc3)NC(=O)[C@H]([C@@H](C)CC)NC(=O)[C@@H](CCCN)NC2=O)[C@@H](C)CC)CS1 (stereo partly specified) (X1-L[dE]IK[dOrn]I[dF]H[dD]N; lactam 4-C)
- EC50 [5]: 4.71 µM (active)
- EC50 [7]: 30.8 µM (inactive)

Compound: COc1cc(CNC(=O)CCCCCCC(C)C)ccc1O [DIHYDROCAPSAICIN]
- AC50 [1]: 35.5 µM (inconclusive)

Compound: CNC(=O)OCC[N+](C)(C)C [METHYLCARBAMYLCHOLINE CHLORIDE]
- AC50 [1]: 35.5 µM (inconclusive)

Compound: CCCN(CCC)c1c([N+](=O)[O-])cc(C(F)(F)F)cc1[N+](=O)[O-] [TRIFLURALIN]
- AC50 (Cytochrome P450 3A4): 15.8 µM (inconclusive)
- AC50 [1]: 14.1 µM (inconclusive)
